What all share (assay type): cell-based
The target in one experiment is T1, hASIC3 (Homo sapiens, UniProt Q9UHC3).
T1 sequence (Q9UHC3 1-531): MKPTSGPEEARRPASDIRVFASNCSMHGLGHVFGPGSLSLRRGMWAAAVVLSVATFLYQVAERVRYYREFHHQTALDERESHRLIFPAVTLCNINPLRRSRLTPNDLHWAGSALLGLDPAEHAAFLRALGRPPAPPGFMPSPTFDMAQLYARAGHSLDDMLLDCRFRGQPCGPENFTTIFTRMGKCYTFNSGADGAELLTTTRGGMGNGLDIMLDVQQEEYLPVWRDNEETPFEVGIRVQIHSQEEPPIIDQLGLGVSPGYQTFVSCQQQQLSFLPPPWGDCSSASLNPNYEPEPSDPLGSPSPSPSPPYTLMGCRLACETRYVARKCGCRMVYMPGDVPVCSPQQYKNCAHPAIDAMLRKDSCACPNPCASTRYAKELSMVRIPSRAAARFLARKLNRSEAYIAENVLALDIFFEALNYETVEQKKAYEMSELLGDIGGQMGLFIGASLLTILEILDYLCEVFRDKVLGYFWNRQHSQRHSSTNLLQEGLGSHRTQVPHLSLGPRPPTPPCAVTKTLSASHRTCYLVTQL
Description: FlexStation assay on HEK293 cells expressing hASIC3. Set-up: expressed in transfected cells; host or cells: HEK293 cells. Conditions: for IC50: FlexStation (Flex), Tables A-F, read-out: Biological Data (IC50 uM) h3 (Flex); for EC50: Table H, cells marked (h3), HEK293, read-out: EC50 (μM) Flex/FLIPR (h3). The procedure: A vial of FMP dye (Molecular Devices) is resuspended in 10.5 ml of assay buffer (48.3 mM NaCl, 93 mM NMDG, 5 mM KCl, 5 mM CaCl2, 1 mM MgCl2, 10 mM HEPES, pH 7.4). The culture medium is aspirated from the wells, and 100 μl of the FMP loading solution is added to each well. The cells are incubated at 37° C. for 30 min.
After the loading period, the loading solution is left on the cells and the membrane potential-induced fluorescence is measured in FLIPR™ or FlexStation™ (Molecular Devices, USA), or any other suitable equipment known to the skilled in the art.
For cells co-expressing ASIC1a and ASIC3 channels (e.g. HEK293 cells), membrane potential dye (FMP dye) is used and the FlexStation settings are as above.
The MES-induced peak calcium response (or change in membrane potential), in the presence of test substance, is expressed relative to the MES response alone. Test substances that block the MES-induced calcium response (or change in membrane potential) are re-tested in triplicates. Confirmed hits are picked for further characterization by performing full dose-response curves to determine potency of each hit compound as represented by the IC50 values (i.e., the concentration of the test substance which inhibits 50% of the MES-induced calcium and/or membrane potentiation response; see, for example, FIG. 1).
The data shown in Table H was acquired using the FlexStation assay described in Example 1 on HEK293 cells expressing hASIC3 (h3) and/or hASIC1a (h1a).

Experiment [1] has as its target T2, hASIC1a (Homo sapiens, UniProt P78348).
T2 sequence (P78348 1-528): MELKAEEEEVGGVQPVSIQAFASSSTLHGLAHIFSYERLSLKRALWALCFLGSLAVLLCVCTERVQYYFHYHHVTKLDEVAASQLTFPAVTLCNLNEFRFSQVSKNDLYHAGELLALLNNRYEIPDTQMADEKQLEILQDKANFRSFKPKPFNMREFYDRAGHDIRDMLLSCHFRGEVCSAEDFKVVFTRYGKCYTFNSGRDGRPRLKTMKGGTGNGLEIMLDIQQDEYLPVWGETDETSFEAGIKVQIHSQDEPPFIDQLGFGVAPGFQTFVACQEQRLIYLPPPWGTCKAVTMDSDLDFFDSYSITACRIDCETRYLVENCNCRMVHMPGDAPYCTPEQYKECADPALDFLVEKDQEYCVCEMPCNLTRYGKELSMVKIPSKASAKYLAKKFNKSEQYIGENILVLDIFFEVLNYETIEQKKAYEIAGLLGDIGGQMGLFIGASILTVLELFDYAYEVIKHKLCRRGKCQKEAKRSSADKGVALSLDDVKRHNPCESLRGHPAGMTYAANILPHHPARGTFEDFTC
Description: Two-electrode voltage clamp in Xenopus laevis oocytes expressing hASIC1a (OpusExpress). Set-up: expressed in transfected cells; host or cells: Xenopus laevis oocytes, nuclear microinjection of cDNA (e.g. in pCDNA3). Here is the method:
Two-electrode voltage clamp electrophysiological assays in Xenopus laevis oocytes expressing gated ion channels are performed as follows:
Oocytes are surgically removed from adult Xenopus laevis and treated for 2 h at room temperature with 1 mg/ml type I collagenase (Sigma) in Barth's solution under mild agitation. Selected oocytes at stage IV-V are defolliculated manually before nuclear microinjection of 2.5-5 ng of a suitable expression vector, such as pCDNA3, comprising the nucleotide sequence encoding a gated ion channel subunit protein. In such an experiment, the oocytes express homomultimeric proton-gated ion channels on their surface. In an alternate experiment, one, two, three or more vectors comprising the coding sequences for distinct gated ion channel subunits are co-injected in the oocyte nuclei. In the latter case, oocytes express heteromultimeric proton-gated ion channels. […] Once impaled with the microelectrodes, oocytes are continuously superfused at 10-12 ml/min with a modified Ringer's solution containing 97 mM NaCl, 2 mM KCl, 1.8 mM CaCl2, and 10 mM HEPES brought to pH 7.4 with NaOH (Control Ringer). Test Ringer solution is prepared by replacing HEPES with MES and adjusting the pH to the desired acidic value. Compounds of the present invention are prepared in both the Control and Test Ringer solutions and applied to oocytes at room temperature through a computer-controlled switching valve system. […] Similarly, recordings can also be acquired in an automated multichannel oocytes system as the OpusExpress™ (Molecular Devices, Sunnyvale, Calif., USA).
Recordings were acquired from oocytes expressing homomeric hASIC1a using a two-electrode voltage-clamp configuration procedure as described herein.

Experiment [2] deals with T2, hASIC1a. Kind of experiment: Whole-cell patch clamp of acid-induced currents in cells transfected with hASIC1a. Also on record: expressed in transfected cells. Conditions: patch clamp (PC), Tables A-F, h1a printed in some cells only. The procedure: Another example of an in vitro assessment method consists of using mammalian heterologous expression systems, which are known to those skilled in the art, and include a variety of mammalian cell lines such as COS, HEK, e.g., HEK293 and/or CHO, cells. Cell lines are transfected with gated ion channel(s) and used to perform electrophysiology as follows:
All experiments are performed at room temperature (20-25° C.) in voltage clamp using conventional whole cell patch clamp methods (Neher, E., et al. (1978) Pfluegers Arch 375:219-228).
The amplifier used is the EPC-9 (HEKA-electronics, Lambrect, Germany) run by a Macintosh G3 computer via an ITC-16 interface. Experimental conditions are set with the Pulse-software accompanying the amplifier. Data is low pass filtered and sampled directly to hard-disk at a rate of 3 times the cut-off frequency.
Pipettes are pulled from borosilicate glass using a horizontal electrode puller (Zeitz-lnstrumente, Augsburg, Germany). The pipette resistances are 2-3 MOhms in the salt solutions used in these experiments. The pipette electrode is a chloridized silver wire, and the reference is a silver chloride pellet electrode (In Vivo Metric, Healdsburg, USA) fixed to the experimental chamber. The electrodes are zeroed with the open pipette in the bath just prior to sealing.
Coverslips with the cells are transferred to a 15 μl experimental chamber mounted on the stage of an inverted microscope (IMT-2, Olympus) supplied with Nomarski optics. Cells are continuously superfused with extracellular saline at a rate of 2.5 ml/min. After giga-seal formation, the whole cell configuration is attained by suction. The cells are held at a holding voltage of −60 mV and at the start of each experiment the current is continuously measured for 45 s to ensure a stable baseline. Solutions of low pH (<7) are delivered to the chamber through a custom-made gravity-driven flowpipe, the tip of which is placed approximately 50 μm from the cell. Application is triggered when the tubing connected to the flowpipe is compressed by a valve controlled by the Pulse-software. Initially, low pH (in general, pH 6.5) is applied for 5 s every 60 s. The sample interval during application is 550 μs. After stable responses are obtained, the extracellular saline as well as the low-pH solution are switched to solutions containing the compound to be tested. The compound is present until responses of repeatable amplitude are achieved. Current amplitudes are measured at the peak of the responses, and effect of the compounds is calculated as the amplitude at compound equilibrium divided by the amplitude of the current evoked by the pulse just before the compound was included.
The following salt solutions are used: extracellular solution (mM): NaCl (140), KCl (4), CaCl2 (2), MgCl2 (4), HEPES (10, pH 7.4); intracellular solution (mM): KCl (120), KOH (31), MgCl2 (1.785), EGTA (10), HEPES (10, pH 7.2). In general, compounds for testing are dissolved in 50% DMSO at 500 fold the highest concentration used.
CHO cells were transfected with hASIC1a and used to perform full dose-inhibition curves with Compound B, and Compound R. Results are expressed as a fraction of the control peak current obtained in the absence of the test substance.
On the technique in general: In patch-clamp work, channel activity is measured electrically.

Where [3] appears, read: OpusExpress (OX), Tables A-F, h1a printed in some cells only, read-out: Biological Data (IC50 uM) h1a (OX).
Setting [4] is: OpusExpress (OX), Tables A-F, h1a printed in some cells only.
Where [5] appears, read: Table H, read-out: IC50 (μM) Opus Express (h1a).

By IC50 is commonly meant the concentration needed to halve the response being measured.

With `O=C(O)c1cc(-c2ccc(Cl)cc2)nc2ccc(Cl)cc12` [Compound 36, 6-chloro-2-(4-chloro-phenyl)-quinoline-4-carboxylic acid], the values for the 50% inhibitory concentration (IC50) at hASIC3 and at hASIC1a [1] (setting [3]) were 15 to 25 µM and greater than 50 µM, respectively.
As to `COc1ccc(-c2cc(C(=O)O)c3cc(Cl)ccc3n2)c(O)c1` [Compound 37, 6-chloro-2-(2-hydroxy-4-methoxy-phenyl)-acid], the half-inhibitory concentration (IC50) on hASIC3 was in the range of 10 to 20 µM.
With `COc1ccc(N2CCN(C(=O)c3cc(-c4ccc(OC)c(OC)c4)nc4ccccc34)CC2)cc1` [Compound 41, [2-(3,4-dimethoxy-phenyl)-quinolin-4-yl]-[4-(4-methoxy-phenyl)-piperazin-1-yl]-methanone], the “Biological Data (IC50 uM) h1a (PC)” value on hASIC1a [2] is “Not Active (OX, PC)”. Also, at hASIC1a [1] (setting [4]), the “Biological Data (IC50 uM) h1a (OX)” value is “Not Active (OX, PC)”.
As to `COc1ccc(-c2cc(C(=O)N3CCN(Cc4ccc5c(c4)OCO5)CC3)c3cc(Cl)ccc3n2)cc1` [Compound 44, (4-benzo[1,3]dioxol-5-ylmethyl-piperazin-1-yl)-[6-chloro-2-(4-methoxy-phenyl)-quinolin-4-yl]-methanone], at hASIC1a [2], the “Biological Data (IC50 uM) h1a (PC)” value was “Not Active (OX, PC)”. Besides, the “Biological Data (IC50 uM) h1a (OX)” value at hASIC1a [1] (setting [4]) is recorded as “Not Active (OX, PC)”.
Consider `Cc1ccc(-c2nc(Nc3ccc(C(=O)O)cc3)c3cc(Cl)ccc3n2)cc1` [Compound 107, 4-(6-chloro-2-p-tolyl-quinazolin-4-ylamino)-benzoic acid], for which the IC50 on hASIC1a [2] (read-out: Biological Data (IC50 uM) h1a (PC)) is greater than 30 µM; at hASIC3 it was 20 to 30 µM.
On to `COc1ccc(CN2CCC(Oc3cc(C)nc4ccccc34)CC2)cc1` [Compound 112, 4-[1-(4-Methoxy-benzyl)-piperidin-4-yloxy]-2-methyl-quinoline], for which, at hASIC1a [1] (setting [3]), the IC50 is 15 to 25 µM.
Take `C=CCOC(=O)N1CCC(Oc2cc(C)nc3ccccc23)CC1` [Compound 113, 4-(2-methyl-quinolin-4-yloxy)-piperidine-1-carboxylic acid allyl ester]: the figures for the IC50 on hASIC1a [1] (setting [3]) and on hASIC1a [1] (setting [5]) were greater than 30 µM and 17.1 µM, respectively.
Consider `CN1CCN(c2nc(-c3ccccc3F)nc3ccccc23)CC1` [Compound L, 2-(2-fluoro-phenyl)-4-(4-methyl-piperazin-1-yl)-quinazoline], for which, on hASIC3, the IC50 lay in the range of 5 to 15 µM and the EC50 is greater than 10 µM.
Turning to `Cc1cc(N2CCNCC2)c2ccccc2n1` [Compound M, 2-methyl-4-piperazin-1-yl-quinoline], at hASIC3, the IC50 is 5 to 15 µM and the EC50 was greater than 10 µM. On hASIC1a [1] (setting [4]), the “Biological Data (IC50 uM) h1a (OX)” value is “inactive”. Moreover, the “IC50 (μM) Opus Express (h1a)” value against hASIC1a [1] (Table H) was “Inactive”.
Regarding `Cc1cc(N2CCN(C(=O)OCc3ccccc3)CC2)c2ccccc2n1` [Compound N, 4-(2-methyl-quinolin-4-yl)-piperazine-1-carboxylic acid benzyl ester], at hASIC3, the EC50 is greater than 20 µM. In addition, at hASIC1a [1] (Table H), the “IC50 (μM) Opus Express (h1a)” value is “Inactive”.
On to `Cc1cc(N2CCN(Cc3ccc4c(c3)OCO4)CC2)c2ccccc2n1` [Compound P], for which, at hASIC3, the IC50 lay in the range of 10 to 20 µM and the EC50 is greater than 10 µM. Moreover, the IC50 on hASIC1a [1] (setting [5]) is greater than 50 µM.
Consider `FC(F)(F)c1ccc2c(OC3CCN(Cc4ccccc4)CC3)ccnc2c1` [Compound S, 4-(1-benzyl-piperidin-4-yloxy)-7-trifluoromethyl-quinoline], for which, on hASIC3, the IC50 fell in the range of 25 to 35 µM and the EC50 was greater than 20 µM.
In the case of `Cc1ccc(-c2nc(Nc3cccc(C(=O)O)c3)c3ccccc3n2)cc1` [Compound T, 3-(2-p-tolyl-quinazolin-4-ylamino)-benzoic acid], the EC50 at hASIC3 was greater than 20 µM.

The values above are taken from patent US20070197509A1, “Compositions and methods for modulating gated ion channels” (PainCeptor Pharma Corporation, priority 2005, published 2007).
